According to patent US20110263577A1 (priority 2008, published 2011):
Structures can show the parent of a compound that is named as a salt.

Biological target: α7-subtype of nicotinic receptors (Rattus norvegicus, UniProt Q05941)
Assay: biochemical
Assay type: binding

Sequence of α7-subtype of nicotinic receptors (Q05941 23-502): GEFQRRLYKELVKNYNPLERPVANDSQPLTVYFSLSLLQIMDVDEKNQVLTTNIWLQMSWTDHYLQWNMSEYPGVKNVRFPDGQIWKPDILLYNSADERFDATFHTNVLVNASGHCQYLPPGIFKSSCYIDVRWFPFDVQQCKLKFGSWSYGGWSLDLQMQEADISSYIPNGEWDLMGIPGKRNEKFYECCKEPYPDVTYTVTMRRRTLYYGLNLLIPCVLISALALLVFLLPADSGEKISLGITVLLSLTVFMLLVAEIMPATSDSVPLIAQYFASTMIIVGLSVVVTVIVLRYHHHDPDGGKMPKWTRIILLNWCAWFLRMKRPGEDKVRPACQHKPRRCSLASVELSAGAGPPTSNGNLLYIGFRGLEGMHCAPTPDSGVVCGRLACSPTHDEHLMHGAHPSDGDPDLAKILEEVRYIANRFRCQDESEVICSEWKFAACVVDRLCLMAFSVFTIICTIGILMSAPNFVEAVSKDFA

Structure (SMILES) | IC50
c1ccc2c(c1)OCC(c1nnc(N3CCN4CCC3CC4)o1)O2 (stereo not drawn) [Compound 3, 4-[5-(2,3-Dihydro-benzo[1,4]dioxin-2-yl)-[1,3,4]oxadiazol-2-yl]-1,4-diaza-bicyclo[3.2.2]nonane fumaric acid salt] | 1800 nM
c1ccc2c(c1)CC(c1nnc(N3CCN4CCC3CC4)o1)C2 [Compound 1, 4-(5-Indan-2-yl-[1,3,4]oxadiazol-2-yl)-1,4-diaza-bicyclo[3.2.2]nonane fumaric acid salt] | 610 nM
c1ccc2c(c1)OC(c1nnc(N3CCN4CCC3CC4)o1)O2 [Compound 2, 4-(5-Benzo[1,3]-dioxol-2-yl-[1,3,4]oxadiazol-2-yl)-1,4-diaza-bicyclo[3.2.2]nonane fumaric acid salt] | 750 nM
